Experimental data reported in PMC5760531, “Action Potential Recording and Pro-arrhythmia Risk Analysis in Human Ventricular Trabeculae” (Frontiers in Physiology, 2018).

System: human ventricular trabeculae
Experiment: Action potential recording and pro-arrhythmic score analysis in human ventricular trabeculae (hVT);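 further: sharp microelectrode action potential recordings at 37°C in Tyrode-perfused trabeculae, 4 cumulative concentrations each applied 31 min, values averaged over last 30 APs, vehicle 0.1% DMSO as control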
Settings: 1Hz; for Beat Escape (raw data) / EADs (raw data) / Refractoriness Escape (raw data): n=4 trabeculae

SMILES: Nc1nnc(-c2cccc(Cl)c2Cl)c(N)n1 [LAMOTRIGINE, Lamotrigine]
- AMAX (average raw data) (0.6-FOLD free ETPC (17µM)): 101
- AMAX percentage change compared to vehicle control (0.6-FOLD free ETPC (17µM)): -5%
- APD30 (average raw data) (0.6-FOLD free ETPC (17µM)): 147
- APD30 percentage change compared to vehicle control (0.6-FOLD free ETPC (17µM)): -2%
- APD50 (average raw data) (0.6-FOLD free ETPC (17µM)): 197
- APD50 percentage change compared to vehicle control (0.6-FOLD free ETPC (17µM)): 0%
- APD90 (average raw data) (0.6-FOLD free ETPC (17µM)): 282
- APD90 percentage change compared to vehicle control (0.6-FOLD free ETPC (17µM)): 1%
- Alternans (average raw data) (0.6-FOLD free ETPC (17µM)): 0.88
- Alternans percentage change compared to vehicle control (0.6-FOLD free ETPC (17µM)): -35%
- Beat Escape percentage change compared to vehicle control (0.6-FOLD free ETPC (17µM)): 0%
- EADs percentage change compared to vehicle control (0.6-FOLD free ETPC (17µM)): 0%
- ERP (average raw data) (0.6-FOLD free ETPC (17µM)): 0.44
- ERP percentage change compared to vehicle control (0.6-FOLD free ETPC (17µM)): 4%
- Max Dispersion (average raw data) (0.6-FOLD free ETPC (17µM)): 4.42
- Max Dispersion percentage change compared to vehicle control (0.6-FOLD free ETPC (17µM)): -5%
- RMP (average raw data) (0.6-FOLD free ETPC (17µM)): -83
- RMP percentage change compared to vehicle control (0.6-FOLD free ETPC (17µM)): -3%
- Refractoriness Escape percentage change compared to vehicle control (0.6-FOLD free ETPC (17µM)): 0%
- STV (average raw data) (0.6-FOLD free ETPC (17µM)): 0.60
- STV percentage change compared to vehicle control (0.6-FOLD free ETPC (17µM)): -26%
- Triangulation (average raw data) (0.6-FOLD free ETPC (17µM)): 136
- Triangulation percentage change compared to vehicle control (0.6-FOLD free ETPC (17µM)): 3%
- Beat Escape (raw data) (0.6-FOLD free ETPC (17µM)): 0
- EADs (raw data) (0.6-FOLD free ETPC (17µM)): 0
- Refractoriness Escape (raw data) (0.6-FOLD free ETPC (17µM)): 0
- AMAX (average raw data) (6-FOLD free ETPC (17µM)): 106
- AMAX percentage change compared to vehicle control (6-FOLD free ETPC (17µM)): -1%
- APD30 (average raw data) (6-FOLD free ETPC (17µM)): 128
- APD30 percentage change compared to vehicle control (6-FOLD free ETPC (17µM)): -15%
- APD50 (average raw data) (6-FOLD free ETPC (17µM)): 169
- APD50 percentage change compared to vehicle control (6-FOLD free ETPC (17µM)): -14%
- APD90 (average raw data) (6-FOLD free ETPC (17µM)): 249
- APD90 percentage change compared to vehicle control (6-FOLD free ETPC (17µM)): -11%
- Alternans (average raw data) (6-FOLD free ETPC (17µM)): 1.29
- Alternans percentage change compared to vehicle control (6-FOLD free ETPC (17µM)): -5%
- Beat Escape percentage change compared to vehicle control (6-FOLD free ETPC (17µM)): 0%
- EADs percentage change compared to vehicle control (6-FOLD free ETPC (17µM)): 0%
- ERP (average raw data) (6-FOLD free ETPC (17µM)): 0.41
- ERP percentage change compared to vehicle control (6-FOLD free ETPC (17µM)): -3%
- Max Dispersion (average raw data) (6-FOLD free ETPC (17µM)): 5.13
- Max Dispersion percentage change compared to vehicle control (6-FOLD free ETPC (17µM)): 10%
- RMP (average raw data) (6-FOLD free ETPC (17µM)): -87
- RMP percentage change compared to vehicle control (6-FOLD free ETPC (17µM)): 2%
- Refractoriness Escape percentage change compared to vehicle control (6-FOLD free ETPC (17µM)): 0%
- STV (average raw data) (6-FOLD free ETPC (17µM)): 0.81
- STV percentage change compared to vehicle control (6-FOLD free ETPC (17µM)): 302%
- Triangulation (average raw data) (6-FOLD free ETPC (17µM)): 121
- Triangulation percentage change compared to vehicle control (6-FOLD free ETPC (17µM)): -8%
- Beat Escape (raw data) (6-FOLD free ETPC (17µM)): 0
- EADs (raw data) (6-FOLD free ETPC (17µM)): 0
- Refractoriness Escape (raw data) (6-FOLD free ETPC (17µM)): 0
- AMAX (average raw data) (18-FOLD free ETPC (17µM)): 97
- AMAX percentage change compared to vehicle control (18-FOLD free ETPC (17µM)): -9%
- APD30 (average raw data) (18-FOLD free ETPC (17µM)): 115
- APD30 percentage change compared to vehicle control (18-FOLD free ETPC (17µM)): -23%
- APD50 (average raw data) (18-FOLD free ETPC (17µM)): 152
- APD50 percentage change compared to vehicle control (18-FOLD free ETPC (17µM)): -23%
- APD90 (average raw data) (18-FOLD free ETPC (17µM)): 244
- APD90 percentage change compared to vehicle control (18-FOLD free ETPC (17µM)): -13%
- Alternans (average raw data) (18-FOLD free ETPC (17µM)): 7.23
- Alternans percentage change compared to vehicle control (18-FOLD free ETPC (17µM)): 435%
- Beat Escape percentage change compared to vehicle control (18-FOLD free ETPC (17µM)): 25%
- EADs percentage change compared to vehicle control (18-FOLD free ETPC (17µM)): 0%
- ERP (average raw data) (18-FOLD free ETPC (17µM)): 0.39
- ERP percentage change compared to vehicle control (18-FOLD free ETPC (17µM)): -7%
- Max Dispersion (average raw data) (18-FOLD free ETPC (17µM)): 10.63
- Max Dispersion percentage change compared to vehicle control (18-FOLD free ETPC (17µM)): 127%
- RMP (average raw data) (18-FOLD free ETPC (17µM)): -90
- RMP percentage change compared to vehicle control (18-FOLD free ETPC (17µM)): 5%
- Refractoriness Escape percentage change compared to vehicle control (18-FOLD free ETPC (17µM)): 0%
- STV (average raw data) (18-FOLD free ETPC (17µM)): 5.08
- STV percentage change compared to vehicle control (18-FOLD free ETPC (17µM)): 477%
- Triangulation (average raw data) (18-FOLD free ETPC (17µM)): 130
- Triangulation percentage change compared to vehicle control (18-FOLD free ETPC (17µM)): -2%
- Beat Escape (raw data) (18-FOLD free ETPC (17µM)): 1
- EADs (raw data) (18-FOLD free ETPC (17µM)): 0
- Refractoriness Escape (raw data) (18-FOLD free ETPC (17µM)): 0
- AMAX (average raw data) (59-FOLD free ETPC (17µM)): 39
- AMAX percentage change compared to vehicle control (59-FOLD free ETPC (17µM)): -63%
- APD30 (average raw data) (59-FOLD free ETPC (17µM)): 48
- APD30 percentage change compared to vehicle control (59-FOLD free ETPC (17µM)): -69%
- APD50 (average raw data) (59-FOLD free ETPC (17µM)): 66
- APD50 percentage change compared to vehicle control (59-FOLD free ETPC (17µM)): -67%
- APD90 (average raw data) (59-FOLD free ETPC (17µM)): 169
- APD90 percentage change compared to vehicle control (59-FOLD free ETPC (17µM)): -38%
- Alternans (average raw data) (59-FOLD free ETPC (17µM)): 6.14
- Alternans percentage change compared to vehicle control (59-FOLD free ETPC (17µM)): 354%
- Beat Escape percentage change compared to vehicle control (59-FOLD free ETPC (17µM)): 100%
- EADs percentage change compared to vehicle control (59-FOLD free ETPC (17µM)): 0%
- ERP (average raw data) (59-FOLD free ETPC (17µM)): 0.38
- ERP percentage change compared to vehicle control (59-FOLD free ETPC (17µM)): -10%
- Max Dispersion (average raw data) (59-FOLD free ETPC (17µM)): 28.20
- Max Dispersion percentage change compared to vehicle control (59-FOLD free ETPC (17µM)): 503%
- RMP (average raw data) (59-FOLD free ETPC (17µM)): -74
- RMP percentage change compared to vehicle control (59-FOLD free ETPC (17µM)): -9%
- Refractoriness Escape percentage change compared to vehicle control (59-FOLD free ETPC (17µM)): 0%
- STV (average raw data) (59-FOLD free ETPC (17µM)): 3.94
- STV percentage change compared to vehicle control (59-FOLD free ETPC (17µM)): 2736%
- Triangulation (average raw data) (59-FOLD free ETPC (17µM)): 121
- Triangulation percentage change compared to vehicle control (59-FOLD free ETPC (17µM)): 1%
- Beat Escape (raw data) (59-FOLD free ETPC (17µM)): 4
- EADs (raw data) (59-FOLD free ETPC (17µM)): 0
